Measured values as given in PMC9322082, “Improvement in Solubility–Permeability Interplay of Psoralens from Brosimum gaudichaudii Plant Extract upon Complexation with Hydroxypropyl-β-cyclodextrin” (Molecules, 2022).
In brackets after ≈: the same amount, converted by molar mass. Several values for one entry are separate records, joined by “and”; a condition that tells them apart may be missing. Equal entries are not always repeated. Where two headings read alike, the source gives them in different places. Values belong to the compound of their own block, whether it stands above or below them.

What was measured:
[1] = Ex vivo rat jejunal permeability (MTS-Snapwell system, A–B); format: in vitro ADME; conditions: female, Wistar, pH 7.4, pure compound, KRB, without stirring (0 rpm)
[2] = Preliminary in vivo studies in rats (plasma AUC); conditions: rat, n = 3
[3] = Phase solubility studies with HP-β-CD in KRB buffer; format: physicochemical; conditions: for solubility at 7 d: KRB buffer, 37 °C, thermodynamic from solid
Method: Phase solubility studies were performed in KRB buffer solutions (pH 7.4), as described by Higuchi and Connors. […] Samples were centrifuged (4000 rpm, 5 min) and filtered (Nylon filter; 0.45 µm) prior to the psoralens content analysis by the HPLC-DAD validated method.
The complexation efficiency (CE) was determined by using the slope of the linear phase solubility diagram as follows:CE = slope/(1 − slope)(2)

rat jejunum [4] = assay: Ex vivo rat jejunal permeability (MTS-Snapwell system, A–B); format: in vitro ADME
Method: (§1) Study protocol for female Wistar rats (12–14 weeks old) was approved by the Ethics Committee on Animal Use (#066/15) at the Federal University of Goiás, Goiás, Brazil. One week before starting the experiment, all animals were acclimatized at controlled conditions with regulated access to a standard food (22 ± 2 °C, 12-h light/dark cycle). After this, they fasted for 12 h with free access to water. All animals (body weight = 215 ± 12 g) were then anesthetized using a mixture of ketamine/xylazine (90.0/7.5 mg/kg). Rat jejunum was removed and immediately placed into an ice-cold KRB solution. The jejunum (20 mm) seromuscular layer was carefully stripped off from the membrane and mounted in the MTS-Snapwell system. Next, unidirectional drug transport was measured from the apical to basolateral side (A–B).
(§2) Sample aliquots (400 µL) were placed in the donor compartment (apical side).
(§3) Drug transport was measured by collecting samples (500 µL) from the receiver chamber (basolateral side) at 0, 20, 30, 40, 60, 90, and 120 min. Receiver samples were replaced with equal volume of fresh KRB solution (37 °C). The system was maintained on a plate shaker (60 rpm) inside a humidified incubator (37 ± 0.5 °C) in a controlled atmosphere (95% O2, and 5% CO2), before and during the transport experiment. Samples were analyzed by the HPLC-DAD validated method.
(§4) The change in donor and receiver concentrations was taken into consideration when the apparent permeability coefficient (Papp) was calculated using to the following equation:Papp = dQ/dt(1/CD A)(3) where dQ/dt is the appearance rate of the drug in the receiver compartment, CD is the concentration of the drug in the donor chamber at each sample interval, and A is the surface area (0.1 cm^2) of the tissue segment. The initial concentration of the drug in the donor compartment was determined experimentally, and donor concentrations at each time point were obtained by the calculation of the mass balance.
(§5) Integrity of intestinal tissue segments mounted in the MTS-Snapwell system was assessed by measuring the transepithelial electrical resistance (TEER) using the KRB solution at 37 °C as the conducting medium. Viable intestinal segments (>30 Ω·cm^2) were mounted on the permeation apparatus and subjected to a preincubation period (30 min) under a controlled atmosphere (95% O2 and 5% CO2) before starting the experiments.

[5] = as above; format: in vitro ADME; conditions: female, Wistar, rat
Method: as §1, §2, §3, §4, §5

jejunal tissue = assay: Viability of intestinal tissue segments by TEER; format: in vitro ADME, rat
Method: The effects of HP-β-CD on the viability of intestinal tissue segments mounted in the MTS-Snapwell system was evaluated during incubation time (120 min) at 37 °C. For this purpose, TEER values in the presence and absence of 20% (w/w) HP-β-CD were compared.
as §5

rat jejunum [6] = tested on: rat jejunum; set-up: method as in PMID 32942105; conditions: 0.58 mM; BCS low/high permeability class boundary marker; n = 41; cited from earlier work
[7] = pH 7.4, marker in EBGT plant extract, HP-β-CD 70 mM
[8] = pH 7.4, marker in EBGT plant extract, KRB solution without HP-β-CD
[9] = pH 7.4, pure compound, HP-β-CD 70 mM
[10] = pH 7.4, pure compound, KRB solution without HP-β-CD, stirring 60 rpm, 120 min

Papp at 120 min [1]: 7.8 ± 1.91 ×10⁻⁶ cm/s
AUC ([2]; EBGT in HP-β-CD 70 mM solution, dose 0.12 mg/kg): 377 ng·h/mL
AUC ([2]; EBGT uncomplexed, dose 1.5 g/kg): 516 ng·h/mL
Kc fold lower in EBGT compared to pure compound ([3]; EBGT marker vs pure compound): ~1.8 fold
solubility at 7 d ([3]; pH 7.4, aqueous buffer, marker in EBGT plant extract (9.0 mg/mL), KRB pH 7.4, 37 °C, absence of HP-β-CD, read-out: intrinsic solubility (S0) in EBGT): 38 ± 2 µM (≈ 8.22 µg/mL)
solubility at 7 d ([3]; pH 7.4, aqueous buffer, pure compound, KRB buffer pH 7.4, 37 °C, absence of HP-β-CD, read-out: intrinsic solubility (S0)): 32 ± 1 µM (≈ 6.92 µg/mL)
solubility at 7 d ([3]; pH 7.4, aqueous with cosolvent or surfactant or cyclodextrin, aqueous solubility with 70 mM HP-β-CD in plant extract, marker in EBGT, 70 mM HP-β-CD, KRB pH 7.4, 37 °C): 720 ± 40 µM (≈ 156 µg/mL)
solubility at 7 d ([3]; pH 7.4, aqueous with cosolvent or surfactant or cyclodextrin, aqueous solubility with 70 mM HP-β-CD, pure compound, 70 mM HP-β-CD, KRB pH 7.4, 37 °C): 930 ± 7 µM (≈ 201 µg/mL)
complexation efficiency (CE) with HP-β-CD in EBGT ([3]; marker in EBGT plant extract): 0.010 ± 0.001
intrinsic solubility (S0) in EBGT ([3]; marker in EBGT plant extract (9.0 mg/mL), KRB pH 7.4, 37 °C, absence of HP-β-CD): 40 ± 2 µM
Kc (stability constant) with HP-β-CD in EBGT ([3]; marker in EBGT plant extract, KRB pH 7.4, 37 °C): 251.2 ± 1.4 M⁻¹
solubility increase ([3]; marker in EBGT, 70 mM HP-β-CD vs no HP-β-CD): 18 fold
complexation efficiency (CE) with HP-β-CD ([3]; pure compound): 0.014 ± 0.001
phase solubility diagram profile (Higuchi-Connors) ([3]; pure compound with HP-β-CD, indicates 1:1 complex): AL type
intrinsic solubility (S0) ([3]; pure compound, KRB buffer pH 7.4, 37 °C, absence of HP-β-CD): 30 ± 1 µM
Kc (stability constant) of HP-β-CD inclusion complex ([3]; pure compound, KRB pH 7.4, 37 °C, 1:1 complex): 449.9 ± 16.6 M⁻¹ and < 500 M⁻¹
permeability rate decrease after adding HP-β-CD (rat jejunum [4]; EBGT markers): 4 fold
permeability rate decrease after adding HP-β-CD (rat jejunum [4]; pure standards): 6 fold
Papp at 120 min [5, 7]: 3.04 ± 1.19 ×10⁻⁶ cm/s
Papp at 120 min [5, 8]: 10.7 ± 1.73 ×10⁻⁶ cm/s
Papp at 120 min [5, 9]: 2.05 ± 0.81 ×10⁻⁶ cm/s
Papp at 120 min [5, 10]: 11.2 ± 3.28 ×10⁻⁶ cm/s
Structure (SMILES): COc1c2ccoc2cc2oc(=O)ccc12 [5-MOP, 5-methoxypsoralen]

Structure (SMILES): CC(O)COC[C@H]1O[C@@H]2O[C@H]3[C@H](O)[C@@H](O)[C@@H](O[C@H]4[C@H](O)[C@@H](O)[C@@H](O[C@H]5[C@H](O)[C@@H](O)[C@@H](O[C@H]6[C@H](O)[C@@H](O)[C@@H](O[C@H]7[C@H](O)[C@@H](O)[C@@H](O[C@H]8[C@H](O)[C@@H](O)[C@@H](O[C@H]1[C@H](O)[C@H]2O)O[C@@H]8COCC(C)O)O[C@@H]7COCC(C)O)O[C@@H]6COCC(C)O)O[C@@H]5COCC(C)O)O[C@@H]4COCC(C)O)O[C@@H]3COCC(C)O (stereo partly drawn) [HP-β-CD, 2-hydroxypropyl-β-cyclodextrin]
TEER after incubation (jejunal tissue; 20% (w/w) HP-β-CD, 120 min, 37 °C, n = 16, control KRB 32 ± 9, p = 0.99): 29 ± 7 Ω·cm^2
effect on viability of jejunal tissue (jejunal tissue; HP-β-CD at high concentration (20% w/w)): does not affect the viability of jejunal tissue

Papp at 120 min [1]: 20.5 ± 2.82 ×10⁻⁶ cm/s
permeability rate decrease after adding HP-β-CD (rat jejunum [4]; EBGT markers): 4 fold
permeability rate decrease after adding HP-β-CD (rat jejunum [4]; pure standards): 6 fold
Papp at 120 min [5, 7]: 3.86 ± 1.81 ×10⁻⁶ cm/s
Papp at 120 min [5, 8]: 17.6 ± 1.35 ×10⁻⁶ cm/s
Papp at 120 min [5, 9]: 3.82 ± 0.62 ×10⁻⁶ cm/s
Papp at 120 min [5, 10]: 21.4 ± 3.81 ×10⁻⁶ cm/s
Structure (SMILES): O=c1ccc2cc3ccoc3cc2o1 [PSO, Psoralen]

Structure (SMILES): COCCc1ccc(OCC(O)CNC(C)C)cc1 (centres unmarked) [metoprolol]
Papp (rat jejunum [6]): 6.21 ± 2.63 × 10^−6 cm/s
